Measurements from US6156744A, “DT-diaphorase directed anti-tumor agents” (Cancer Research Campaign Tech (London), priority 1999, dated 2000).
Where two headings read alike, the source gives them in different places.

Experiments:
H596 and H460 cells = test: MTT continuous challenge cytotoxicity, ratio H596/H460; format: cell-based, human; conditions: ratio of cytotoxicities, five days, 7200 min
Protocol: (§1) The cell lines used in this work were HT29, H460, H596, BE. These were obtained from the ATCC or from the European Collection for Animal Cell Cultures, ECACC. HT29 is a human colon cancer cell line and H460 is a human large cell lung carcinoma cell line. These two cell lines were used as they express relatively high levels of DTD. […] Continuous challenge cytotoxicity studies were carried out on these cells (600 per well) in 96 well plates using the MTT method. After five days, the absorbances were read on a multiscan plate reader at 540 and 640nm. Plots were then drawn for inhibition of cell growth as a function concentration. Each compound was tested in triplicate at each concentration on at least two occasions.

BE and HT-29 cells = test: MTT continuous challenge cytotoxicity, ratio BE/HT-29; format: cell-based, human; conditions: ratio of cytotoxicities, five days, 7200 min
Protocol: as §1

[1] = tested on: BE human colon carcinoma cells and H460 human non-small cell lung cancer cells; test: MTT cytotoxicity, continuous four day exposure, BE versus H460 (FIG. 2); format: cell-based; conditions: four days, 5760 min
Protocol: (§2) The cell line BE is a human colon carcinoma that is described in Day et al., Carcinogenesis 1 :21-32 (1980).
The cytotoxicity of RH1 and MeDZQ to BE human colon carcinoma cells and H460 human non small cell lung cancer cells was determined. BE cells are DT-diaphorase null due to a mutation in the DT-diaphorase gene, while H460 cells have elevated DT-diaphorase levels (Traver et al., (1997) supra.). Cytotoxicity was determined using the MTT assay and cells were exposed to drug continuously throughout the four day assay.

DTD = conditions: cited from earlier work; for pH dependence of metabolism by DTD / Substrate quality for DTD: literature
[2] = tested on: 69 human tumor cell lines; conditions: p<0.016; cited from earlier work
[3] = tested on: CHO cell lines stably transfected with human DTD; conditions: Gustafson et al. 1996; cited from earlier work
DNA [4] = conditions: Lee et al. 1992; cited from earlier work
H460 and H596 cells = conditions: Ross et al. 1993; cited from earlier work
[5] = tested on: NSCLC and breast cancer cell lines; conditions: Beall et al. 1995; cited from earlier work
[6] = tested on: cells under hypoxic conditions; conditions: hypoxic vs aerobic; cited from earlier work
[7] = Beall et al. 1994, 1995; cited from earlier work
[8] = cited from earlier work
DNA [9] = conditions: literature; cited from earlier work
[10] = molecular target: human recombinant DT-diaphorase (Homo sapiens, UniProt P15559); test: NADH removal and quinone removal by recombinant human DT-diaphorase, HPLC; format: biochemical; conditions: for NADH Removal / Quinone Removal: 0.05 mM quinone, 10-100 ng/ml rhDT-diaphorase, 0.2 mM NADH, 25 mM Tris pH 7.4, n=3
human recombinant DT-diaphorase, sequence (P15559 whole entry): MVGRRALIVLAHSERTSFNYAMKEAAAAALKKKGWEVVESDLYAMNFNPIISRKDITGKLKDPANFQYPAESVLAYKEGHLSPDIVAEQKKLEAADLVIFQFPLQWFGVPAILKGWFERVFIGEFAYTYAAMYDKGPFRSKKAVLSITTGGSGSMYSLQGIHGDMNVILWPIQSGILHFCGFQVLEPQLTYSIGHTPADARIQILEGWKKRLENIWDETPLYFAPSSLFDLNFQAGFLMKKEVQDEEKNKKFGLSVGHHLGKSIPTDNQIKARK
Protocol: The relative abilities of MeDZQ and RH1 to serve as substrates for human recombinant DT-diaphorase were determined. Both quinones (0.05 mM) were incubated with 10-100 ng/ml recombinant human DT-diaphorase and NADH (0.2 mM) in 25 mM Tris buffer, pH 7.4, containing 1 mM DETAPAC. NADH removal was measured by HPLC as described in Beall et al., (1995), supra.

NSCLC xenografts = conditions: cited from earlier work
spheroid = conditions: literature; cited from earlier work
[11] = Bibby et al. 1993; cited from earlier work
[12] = Solubility in aqueous solution; format: physicochemical; conditions: phosphate buffered saline; 25° C.
Protocol: (§3) RH1 is easily synthesized with very high purity (>99%). […] The RH1 solutions are very stable with a half life of RH1 in phosphate buffer (0.1 M, pH=7) of more than 2 days at 25° C.

CHO812 and CHOglyA cells = test: Cytotoxicity of RH1 to CHOglyA and DTD-transfected CHO812 cells (FIG. 3); format: cell-based, chinese hamster
Protocol: as §2
Further studies were conducted to determine the cytotoxicity of RH1 to CHOglyA and CHO812 cells. CHOglyA cells have non detectable levels of DT-diaphorase, whereas CHO812 cells have elevated levels of DT-diaphorase as reported in Gustafson et al., (1996) supra. The original CHO cell lines were obtained from the American Type Culture Collection, Rockville, Md.

DNA [13] = test: DNA crosslinking sequence specificity; format: biochemical
[14] = Half-life in pharmacokinetics; conditions: attributed to free hydroxyl group / water solubility
[15] = Stability of RH1 in phosphate buffer; format: physicochemical
Protocol: as §3

[16] = tested on: H460 and H596 human non-small cell lung cancer cells; test: MTT cytotoxicity, 2 hour exposure, H460 versus H596 cells (FIG. 1); format: cell-based
Protocol: FIG. 1 compares the cytotoxicity of RH1 in human non small cell lung tumor cell lines with elevated DTD activity (H460) and those with no detectable DTD activity (H596). RH1 was 350 fold more toxic to tumor cells with elevated DTD activity than to DTD null cells.
Studies were conducted to determine the cytotoxicity of RH1 against human non small cell lung cancer cell lines. H596 cells are DT-diaphorase null due to a mutation in the DT-diaphorase gene, while H460 cells have elevated DT-diaphorase levels as described in Beall et al., (1995) supra and Traver et al., Br. J. Cancer, 75:69-75 (1997). The cell lines H460 and H596 are available from the American Tissue Type Culture Collection (ATCC), Rockville, Md. Cytotoxicity was determined after a 2 hour drug exposure in serumless medium using the MTT assay as described in detail in Beall et al., (1995), supra.

DTD-rich cell lines = conditions: literature; cited from earlier work

CC1=C(N2CC2)C(=O)C(COC(=O)c2ccccc2)=C(N2CC2)C1=O [Benzoyl, benzoyl ester of RH1]
H596/H460 (H596 and H460 cells): 4 | BE/HT-29 (BE and HT-29 cells): 0.1

CC(=O)OCC1=C(N2CC2)C(=O)C(C)=C(N2CC2)C1=O [Acetyl-, 2-Acetoxymethyl-3,6-diaziridinyl-5-methyl-1,4-benzoquinone]
H596/H460 (H596 and H460 cells): 4.7 | BE/HT-29 (BE and HT-29 cells): 5.2

CC1=C(N2CC2)C(=O)C(C)=C(N2CC2)C1=O [MeDZQ, 2,5-diaziridinyl-3,6-dimethyl-1,4-benzoquinone]
Ratio of cytotoxicities of IC50, BE (no DTD activity) to H460 (elevated DTD activity) [1]: 33 | Effectiveness as a substrate for recombinant human DTD relative to mitomycin C (DTD; Beall et al. 1994, Ross et al. 1994): greater than 150 fold | Inhibition / inactivation of DTD at higher pHs (DTD): does not inactivate DTD at higher pHs | pH dependence of metabolism by DTD (DTD): pH-independent | Correlation (r) between DTD activity and cytotoxicity [2]: 0.3033 | Cytotoxicity as a result of transfecting DTD into CHO cells [3]: markedly increased | DNA crosslinking sequence (DNA [4]): GNC sequences | Cytotoxicity to H596 and H460 cells in comparison to RH1 (H460 and H596 cells): less cytotoxic to both H596 and H460 cells | Differential toxicity to H460 cells (versus H596) (H460 and H596 cells): 17 fold | Correlation between DTD levels and cytotoxicity [5]: good correlation | Increase in cytotoxicity under hypoxic relative to aerobic conditions [6]: very modest increase in cytotoxicity | Stability of reactive hydroquinone metabolite [7]: appreciable stability | solubility [8]: poor solubility | DNA damage after reduction (crosslinks, strand breaks) (DNA [9]): absolute requirement for reduction of the drug | NADH Removal [10]: 21.6 ± 4.0 | Quinone Removal [10]: 9.7 ± 2.2 | Relationship between levels of reducing enzymes and efficacy in NSCLC xenografts (NSCLC xenografts; in vivo): confirmed the relationship between the levels of reducing enzymes and the efficacy | Activity / cytotoxicity in spheroid studies (spheroid): increased cytotoxicity

Cn1c(/C=C/CO)c(CO)c2c1C(=O)C=C(N1CC1)C2=O [E09]
Substrate quality for DTD (DTD): efficiently reduced by DTD | Ability to penetrate cells and cross cellular membranes [11]: poor ability | DNA damage after reduction (crosslinks, strand breaks) (DNA [9]): exclusively form DNA strand breaks | Activity / cytotoxicity in spheroid studies (spheroid): not active

CO[C@@]12[C@H](COC(N)=O)C3=C(C(=O)C(C)=C(N)C3=O)N1C[C@@H]1N[C@@H]12 [mitomycin C]
Inhibition / inactivation of DTD at higher pHs (DTD): pH-dependent inhibition of DTD at higher pHs | Substrate quality for DTD (DTD): very poor substrate for DTD | pH dependence of metabolism by DTD (DTD): pH-dependent | Susceptibility of NSCLC xenografts with high DTD activity versus SCLC xenografts with low DTD activity (NSCLC xenografts; literature): more susceptible

CC1=C(N2CC2)C(=O)C(CO)=C(N2CC2)C1=O [RH1, 2,5-diaziridinyl-3-(hydroxymethyl)-6-methyl-1,4-benzoquinone]
Ratio of cytotoxicities of IC50, BE (no DTD activity) to H460 (elevated DTD activity) [1]: 51 | H596/H460 (H596 and H460 cells): 41 | solubility [12]: > 500 µg/mL | Susceptibility of CHO-812 (DTD overexpressing) to cell killing relative to parent CHO-glyA (CHO812 and CHOglyA cells): more susceptible | DNA crosslinking sequence (DNA [13]): GCC sequences | Half-life in pharmacokinetics [14]: shorter half-life in pharmacokinetics | BE/HT-29 (BE and HT-29 cells): 17.5 | Stability of solutions [15]: very stable | half-life ([15]; 0.1 m phosphate buffer, 0.1 M, pH=7, 25° C.): > 48 h | NADH Removal [10]: 45.2 ± 6.3 | Quinone Removal [10]: 28.2 ± 4.2 | Effectiveness as a substrate for DT-diaphorase, compared with MeDZQ ([10]; Example 2): more effective as a substrate for DT-diaphorase than MeDZQ | Cytotoxicity to tumor cell lines with elevated DTD activity, compared with MeDZQ [16]: more cytotoxic to tumor cell lines with elevated DTD activity | Selective killing of DTD-rich cells [16]: selectively kills cells rich in DTD | Fold toxicity to tumor cells with elevated DTD activity (H460) relative to DTD null cells (H596) ([16]; 2 hour exposure, MTT, FIG. 1): 350 fold

CCOC(=O)NC1=C(N2CC2)C(=O)C(NC(=O)OCC)=C(N2CC2)C1=O [AZQ, Diaziquone]
Substrate quality for DTD (DTD): extremely poor substrate for DTD | Selectivity for DTD-rich cell lines (DTD-rich cell lines): failed to show any selectivity for DTD-rich cell lines | DNA damage after reduction (crosslinks, strand breaks) (DNA [9]): does not readily form DNA crosslinks after reduction by DTD
